Several values for one entry are separate records, joined by “and”; a condition that tells them apart may be missing. Equal values may be shown once.
What was measured:
Type in all cases: in vivo
[1] = system: testis of I/R rats; experiment: Testicular MDA in testis of I/R rats; settings: i.p. 1 h before ischemia, dose equivalent to 30 mg NAC, mean ± S.E.M, n=6
Procedure: (§1) This section describes the methods used in the investigation of the antiapoptotic effect of the novel compounds 6a–g then supported by further histological and molecular docking studies. The antiapoptotic effect of 6a–g was evaluated through evaluation of decreasing tissue damage induced by I/R in the testis of rats in a dose equivalent to 30 mg N-acetylcysteine (NAC) as an antiapoptotic reference. The rats were subdivided into sham, I/R, NAC and treated with tested compounds groups, each group comprises of 6 rats (weighing 140–150 g). The targeted compounds 6a–g were administrated intra-peritoneal (i.p.) an hour before ischemia, which lasted for (0.5 h) then reperfusion (1 h) followed by cutting the organ (Figure 5). Different biomarkers concentrations were measured in serum to detect testis injury due to ischemia/reperfusion (I/R).
(§2) During the long testicular torsion, oxidation damage affects the testis by the production of the reactive oxygen species (ROS). Excessive generation of the ROS interacts with lipids, proteins, and nucleic acids, which has an adverse effect on cell function and damage. The testis has high cell metabolism such that excessive ROS production weakens antioxidant capacity. Malondialdehyde (MDA) is the end product of lipid peroxidation and increased MDA level has an adverse effect on sperm fertility. Furthermore, total antioxidant capacity (TAC) is the measure of the number of free radicals scavenged by a test solution, being used to evaluate the antioxidant capacity of biological samples [55]. The data collected in Table S3 (Supplementary Materials) have identified that there was a significant increase in testicular MDA with a significant decrease in testicular TAC in the I/R group as well as compounds 6d and 6f when compared to sham control and NAC groups. These findings indicate that both 6d and 6f are the worst antiapoptotic compounds compound amongst all the synthesized compounds.
TAC was assessed by the colorimetric technique using commercial kits (El-Minia, Egypt) (See Supplementary Materials). Testicular MDA, an index of lipid peroxidation, was determined by using 1,1,3,3-tetramethoxypropane as standard (See Supplementary Materials).

[2] = system: testis of I/R rats; experiment: Testicular TAC in testis of I/R rats; settings: i.p. 1 h before ischemia, dose equivalent to 30 mg NAC, mean ± S.E.M, n=6
Procedure: as §1, §2
TAC was assessed by the colorimetric technique using commercial kits (El-Minia, Egypt) (See Supplementary Materials). Testicular MDA, an index of lipid peroxidation, was determined by using 1,1,3,3-tetramethoxypropane as standard (See Supplementary Materials). […]
1.3.Determination of Total Antioxidant Capacity (Testicular tissue)
Free radicals or reactive oxygen species (ROS) are produced during biochemical redox reactions as part
of normal physiological cell metabolism (protection from infectious organisms) and as a response to
environmental factors such as UV light, cigarette smoke, environmental pollutants, and g-radiation. Once
formed, ROS attack cellular components causing damage to lipids, proteins, and DNA which can initiate
Antioxidants in the sample reduce dark blue-green colored ABTS radical to colorless reduced ABTS
form. The change of absorbance at 660 nm is related with total antioxidant level of the sample. The assay
is calibrated with a stable antioxidant standard solution which is traditionally named as Trolox
Equivalent that is a vitamin E analog.
The determination of the antioxidative capacity is performed by the reaction of antioxidants in the
sample with a defined amount of exogenously provide hydrogen peroxide (H2O2) The antioxidants in the
sample eliminate a certain amount of the provided hydrogen peroxide. The residual H2O2 is determined
(1 picture or pasted object on this page, not shown here)
colorimetrically by an enzymatic reaction which involves the conversion of 3,5,dichloro–2–hydroxy
benzensulphonate to a colored product.
* Dilute R11000 times immediately before use (10 μl R1 + 10 ml d. Water mix Discard after use.
*Working Reagent: mix equal volumes of R2 and R3 immediately before use.
*Dilute sample if necessary
Total Antioxidant concentration […]

[3] = system: testis of I/R rats; experiment: Testicular testosterone in testis of I/R rats (ELISA); parameters: unit not given here; settings: i.p. 1 h before ischemia, dose equivalent to 30 mg NAC, mean ± S.E.M, n=6
Procedure: as §1
(§3) It was reported that excessive apoptosis in the testis could damage the Leydig cells and apparent decline in serum testosterone levels. Furthermore, excessive apoptosis of Leydig cells results in decreased testosterone. The assays of the apoptotic biomarkers (testicular testosterone and TNFα) were done in comparison with the sham and NAC treated group and the results were outlined in Table S4 (Supplementary Materials).
(§4) TNF-α was measured by ELISA kit (Elabscience, Houston, TX, USA). Caspase-3 was measured by ELISA kit Cusabio, Houston, TX, USA (See Supplementary Materials). Testosterone concentration in testicular samples was determined by the ELISA kit (“DRG”, Marburg, Germany) (See Supplementary Materials).
1.2.Determination of serum testosterone using ELISA kit
This ELISA kit uses the Competitive-ELISA principle. The micro ELISA plate provided in this kit has been pre-coated with T. During the reaction, T in the sample or standard competes with a fixed amount of T on the solid phase supporter for sites on the Biotinylated Detection Ab specific to T. Excess conjugate and unbound sample or standard are washed from the plate, and Avidin conjugated to Horseradish Peroxidase (HRP) are added to each microplate well and incubated. Then a TMB substrate solution is added to each well. The enzyme-substrate reaction is terminated by the addition of stop solution and the color change is measured spectrophotometrically at a wavelength of 450 nm ± 2 nm. The concentration of T in the samples is then determined by comparing the OD of the samples to the standard […]
Serum: Allow samples to clot for 2 hours at room temperature or overnight at 4℃ before centrifugation for 20 min at 1000×g at 2-8℃. Collect the supernatant to carry out the assay. Blood collection tubes should be disposable and be non-endotoxin. […]
1. Bring all reagents to room temperature (18~25℃) before use. Follow the Microplate reader manual for set-up and preheat it for 15 min before OD measurement.
2. Wash Buffer: Dilute 30 mL of Concentrated Wash Buffer with 720 mL of deionized or distilled water to prepare 750 mL of Wash Buffer. Note: if crystals have formed in the concentrate, warm it in a 40℃ water-bath and mix it gently until the crystals have completely dissolved.
3. Standard working solution: Centrifuge the standard at 10,000×g for 1min. Add 1.0mL of Reference Standard &Sample Diluent, let it stand for 10min and invert it gently several times. After it dissolves fully, mix it thoroughly with a pipette. This reconstitution produces a working solution of 20 ng/mL. Then make serial dilutions as needed. The recommended dilution gradient is as […]
Dilution method: Take 7 EP tubes, add 500uL of Reference Standard & Sample Diluent to each tube. Pipette 500uL of the 20 ng/mL working solution to the first tube and mix up to produce a 10 ng/mL working solution. Pipette 500uL of the solution from the former tube to the latter one according to this step. The illustration below is for reference. Note: the last tube is regarded as a blank. Don’t pipette solution into it from the former tube.

[4] = system: testis of I/R rats; experiment: TNFα in testis of I/R rats (ELISA); settings: i.p. 1 h before ischemia, dose equivalent to 30 mg NAC, mean ± S.E.M, n=6
Procedure: as §1, §3, §4

[5] = system: caspase-3; experiment: Caspase-3 level in serum of testicular I/R rats (ELISA); settings: mean ± S.E.M, n=6
Procedure: as §1
Caspases can delay apoptosis, implicating a potential role in drug screening efforts. Therefore, we studied the mechanism of the caspase-3 inhibition activity. Caspase-3 was assayed in the serum of rats treated with 6a–g in comparison with sham and the NAC treated group, as shown in Table S5 (Supplementary Materials).
as §4

Compound: COc1ccc2[nH]c(=O)cc(-n3cc(COc4cc(=O)[nH]c5ccccc45)nn3)c2c1 [6c, 6-Methoxy-4-(4-(((2-oxo-1,2-dihydroquinolin-4-yl)oxy)methyl)-1H-1,2,3-triazol-1-yl)-quinolin-2(1H)-one]
- Testicular MDA [1]: 64.93±4.50 nmol/g tissue
- Testicular TAC [2]: 4.78±0.39 mmol/g tissue
- Testicular testosterone [3]: 5.00±0.26
- TNF-α [4]: 106.70 ± 4.75 pg/mL
- Caspase-3 level [5]: 2.39 ± 0.23 ng/mL

Compound: Cn1c(=O)cc(-n2cc(COc3cc(=O)[nH]c4ccccc34)nn2)c2ccccc21 [6d, 1-Methyl-4-(4-(((2-oxo-1,2-dihydroquinolin-4-yl)oxy)methyl)-1H-1,2,3-triazol-1-yl)quinolin-2(1H)-one]
- Testicular MDA [1]: 117.50 ± 3.71 nmol/g tissue
- Testicular TAC [2]: 1.89±0.29 mmol/g tissue
- Testicular testosterone [3]: 2.67±0.25
- TNF-α [4]: 234.50 ± 6.15 pg/mL
- Caspase-3 level [5]: 15.28 ± 1.51 ng/mL

Compound: Cc1ccc2[nH]c(=O)cc(OCc3cn(-c4cc(=O)[nH]c5ccccc45)nn3)c2c1 [6e, 6-Methyl-4-((1-(2-oxo-1,2-dihydroquinolin-4-yl)-1H-1,2,3-triazol-4-yl)methoxy)quinolin-2(1H)-one]
- Testicular MDA [1]: 85.00±6.46 nmol/g tissue
- Testicular TAC [2]: 3.34±0.25 mmol/g tissue
- Testicular testosterone [3]: 3.62±0.17
- TNF-α [4]: 188.90 ± 6.82 pg/mL
- Caspase-3 level [5]: 7.86 ± 0.28 ng/mL

Compound: Cc1ccc2[nH]c(=O)cc(OCc3cn(-c4cc(=O)[nH]c5ccc(C)cc45)nn3)c2c1 [6f, 6-Methyl-4-((1-(6-methyl-2-oxo-1,2-dihydroquinolin-4-yl)-1H-1,2,3-triazol-4-yl)meth-oxy)quinolin-2(1H)-one]
- Testicular MDA [1]: 117.00±3.46 nmol/g tissue
- Testicular TAC [2]: 1.73±0.25 mmol/g tissue
- Testicular testosterone [3]: 1.83±0.14
- TNF-α [4]: 237.90 ± 4.52 pg/mL
- Caspase-3 level [5]: 16.34 ± 1.49 ng/mL

Compound: COc1ccc2[nH]c(=O)cc(OCc3cn(-c4cc(=O)[nH]c5ccccc45)nn3)c2c1 [6g, 6-Methoxy-4-((1-(2-oxo-1,2-dihydroquinolin-4-yl)-1H-1,2,3-triazol-4-yl)methoxy)quinolin-2-(1H)-one]
- Testicular MDA [1]: 89.59±5.58 nmol/g tissue
- Testicular TAC [2]: 3.34±0.21 mmol/g tissue
- Testicular testosterone [3]: 3.45±0.22
- TNF-α [4]: 192.00 ± 6.31 pg/mL
- Caspase-3 level [5]: 6.99 ± 0.24 ng/mL

Compound: CC(=O)N[C@@H](CS)C(=O)O [NAC, N-acetylcysteine, reference compound]
- Testicular MDA [1]: 67.58 nmol/g tissue and 67.58±3.76 nmol/g tissue
- Testicular TAC [2]: 4.45 mmol/g tissue and 4.45±0.40 mmol/g tissue
- TNF-α [4]: 93.39 ± 4.59 pg/mL
- Caspase-3 level [5]: 2.54 ± 0.22 ng/mL

From paper PMC7672604, “Design, Synthesis, Molecular Docking, Antiapoptotic and Caspase-3 Inhibition of New 1,2,3-Triazole/Bis-2(1H)-Quinolinone Hybrids” (Molecules, 2020)
